# Read-outs that look alike come from different tables or passages of the source.
# Experiments:
# Type in all cases: cell-based, human
# DMS 114 = experiment: cell cytotoxicity EC50, CellTiter Glo, SCLC cell line
# Experimental: (§1) The SCLC and leukemia/lymphoma cell lines listed below were obtained from the American Type Culture Collection (Manassas, Va.), Deutsche Sammlung von Mikroorganismen und Zellkulturen (DSMZ, Braunsweig, Germany), or were the generous gift from Dr. Louis Staudt (National Cancer Institute) and were cultured as described in Tse, C., Shoemaker, A. R., Adickes, J., et al., “ABT-263: a potent and orally bioavailable Bcl-2 family inhibitor,” Cancer Res 2008; 68: 3421-3428; and Tahir, S. K., Yang, X., Anderson, M. G., et al., “Influence of Bcl-2 family members on the cellular response of small-cell lung cancer cell lines to ABT-737,” Cancer Res 2007; 67: 1176-1183.
# (§2) Cells were treated at 10,000 or 50,000 cells per well for adherent or suspension cells, respectively, in 96-well microtiter plates in the presence of 10% human serum for 48 hours with or without ABT-263, in a humidified chamber with 5% CO2. ABT-263 was synthesized as previously described in Tse, C., Shoemaker, A. R., Adickes, J., et al., “ABT-263: a potent and orally bioavailable Bcl-2 family inhibitor,” Cancer Res 2008; 68: 3421-3428; and Oltersdorf, T., Elmore, S. W., Shoemaker, A. R., et al., “An inhibitor of Bcl-2 family proteins induces regression of solid tumours,” Nature 2005; 435: 677-681, and cell cytotoxicity EC50 values were assessed using CellTiter Glo (Promega, Madison Wis.).
# DMS153 = experiment: as above
# Experimental: as §1, §2
# DMS79 = experiment: as above
# Experimental: as §1, §2
# NCI-1048 = experiment: as above
# Experimental: as §1, §2
# NCI-211 = experiment: as above
# Experimental: as §1, §2
# NCI-H1105 = experiment: as above
# Experimental: as §1, §2
# NCI-H128 = experiment: as above
# Experimental: as §1, §2
# NCI-H1436 = experiment: as above
# Experimental: as §1, §2
# NCI-H1618 = experiment: as above
# Experimental: as §1, §2
# NCI-H1672 = experiment: as above
# Experimental: as §1, §2
# NCI-H1688 = experiment: as above
# Experimental: as §1, §2
# NCI-H1963 = experiment: as above
# Experimental: as §1, §2
# NCI-H196 = experiment: as above
# Experimental: as §1, §2
# NCI-H2081 = experiment: as above
# Experimental: as §1, §2
# NCI-H2107 = experiment: as above
# Experimental: as §1, §2
# NCI-H345 = experiment: as above
# Experimental: as §1, §2
# NCI-H378 = experiment: as above
# Experimental: as §1, §2
# NCI-H446 = experiment: as above
# Experimental: as §1, §2
# NCI-H510 = experiment: as above
# Experimental: as §1, §2
# NCI-H524 = experiment: as above
# Experimental: as §1, §2
# NCI-H526 = experiment: as above
# Experimental: as §1, §2
# NCI-H69 = experiment: as above
# Experimental: as §1, §2
# NCI-H740 = experiment: as above
# Experimental: as §1, §2
# NCI-H82 = experiment: as above
# Experimental: as §1, §2
# NCI-H847 = experiment: as above
# Experimental: as §1, §2
# NCI-H889 = experiment: as above
# Experimental: as §1, §2
# SW 1271 = experiment: as above
# Experimental: as §1, §2
# Rec-1 [1] = experiment: cell cytotoxicity EC50, CellTiter Glo, Mantle Cell Lymphoma cell line, Rec-1 sub-clone batch listed first
# Experimental: as §1, §2
# Rec-1 [2] = experiment: cell cytotoxicity EC50, CellTiter Glo, Mantle Cell Lymphoma cell line, Rec-1 sub-clone batch listed second
# Experimental: as §1, §2
# [3] = 10% human serum, 48 hours, read-out: EC50
# [4] = Homo sapiens, read-out: Response Designation
# [5] = Homo sapiens, Rec1, read-out: Response Designation
# [6] = Rec1, 10% human serum, 48 hours, read-out: EC50
smiles,measurement,setting,value
"CC1(C)CCC(c2ccc(Cl)cc2)=C(CN2CCN(c3ccc(C(=O)NS(=O)(=O)c4ccc(N[C@H](CCN5CCOCC5)CSc5ccccc5)c(S(=O)(=O)C(F)(F)F)c4)cc3)CC2)C1 [ABT-263, N-(4-(4-((2-(4-chlorophenyl)-5,5-dimethyl-1-cyclohex-1-en-1-yl)methyl)piperazin-1-yl)benzoyl)-4-(((1R)-3-(morpholin-4-yl)-1-((phenylsulfanyl)methyl)propyl)amino)-3-((trifluoromethyl)sulfonyl)benzenesulfonamide]",EC50,DMS 114; [3],33.9 µM
same,EC50,DMS 114; [4],> 4.1 µM
same,EC50,"DMS153; DMS-153, 10% human serum, 48 hours, read-out: EC50",11 µM
same,EC50,"DMS153; Homo sapiens, DMS-153, read-out: Response Designation",> 4.1 µM
same,EC50,"DMS79; DMS-79, 10% human serum, 48 hours, read-out: EC50",1.9 µM
same,EC50,"DMS79; Homo sapiens, DMS-79, read-out: Response Designation",≤ 4.1 µM
same,EC50,NCI-1048; [3],2.86 µM
same,EC50,NCI-1048; [4],≤ 4.1 µM
same,EC50,NCI-211; [3],0.41 µM
same,EC50,NCI-211; [4],≤ 4.1 µM
same,EC50,NCI-H1105; [3],0.7 µM
same,EC50,NCI-H1105; [4],≤ 4.1 µM
same,EC50,NCI-H128; [3],2.5 µM
same,EC50,NCI-H128; [4],≤ 4.1 µM
same,EC50,NCI-H1436; [3],1 µM
same,EC50,NCI-H1436; [4],≤ 4.1 µM
same,EC50,NCI-H1618; [3],1.4 µM
same,EC50,NCI-H1618; [4],≤ 4.1 µM
same,EC50,NCI-H1672; [3],0.7 µM
same,EC50,NCI-H1672; [4],≤ 4.1 µM
same,EC50,NCI-H1688; [3],8.07 µM
same,EC50,NCI-H1688; [4],> 4.1 µM
same,EC50,NCI-H1963; [3],0.18 µM
same,EC50,NCI-H1963; [4],≤ 4.1 µM
same,EC50,NCI-H196; [3],38.6 µM
same,EC50,NCI-H196; [4],> 4.1 µM
same,EC50,NCI-H2081; [3],12 µM
same,EC50,NCI-H2081; [4],> 4.1 µM
same,EC50,NCI-H2107; [3],0.3 µM
same,EC50,NCI-H2107; [4],≤ 4.1 µM
same,EC50,NCI-H345; [3],2.16 µM
same,EC50,NCI-H345; [4],≤ 4.1 µM
same,EC50,NCI-H378; [3],> 50 µM
same,EC50,NCI-H378; [4],> 4.1 µM
same,EC50,NCI-H446; [3],4.1 µM
same,EC50,NCI-H446; [4],≤ 4.1 µM
same,EC50,NCI-H510; [3],1.22 µM
same,EC50,NCI-H510; [4],≤ 4.1 µM
same,EC50,NCI-H524; [3],0.08 µM
same,EC50,NCI-H524; [4],≤ 4.1 µM
same,EC50,NCI-H526; [3],12.6 µM
same,EC50,NCI-H526; [4],> 4.1 µM
same,EC50,NCI-H69; [3],0.71 µM
same,EC50,NCI-H69; [4],≤ 4.1 µM
same,EC50,NCI-H740; [3],> 10 µM
same,EC50,NCI-H740; [4],> 4.1 µM
same,EC50,NCI-H82; [3],22.4 µM
same,EC50,NCI-H82; [4],> 4.1 µM
same,EC50,NCI-H847; [3],0.06 µM
same,EC50,NCI-H847; [4],≤ 4.1 µM
same,EC50,NCI-H889; [3],0.14 µM
same,EC50,NCI-H889; [4],≤ 4.1 µM
same,EC50,"SW 1271; Homo sapiens, SW1271, read-out: Response Designation",> 4.1 µM
same,EC50,"SW 1271; SW1271, 10% human serum, 48 hours, read-out: EC50",33.9 µM
same,EC50,Rec-1 [1]; [5],≤ 4.8 µM
same,EC50,Rec-1 [1]; [6],0.034 µM
same,EC50,Rec-1 [2]; [5],≤ 4.8 µM
same,EC50,Rec-1 [2]; [6],0.698 µM

# — US20100028889A1, “COMPANION DIAGNOSTIC ASSAYS FOR CANCER THERAPY” (ABBOTT LABORATORIES, priority 2006, published 2010)
